Results from EPA's ToxRefDB 2.

Tests used:
[1] = tested on: rat; conditions: Subchronic oral toxicity in rodents, fischer, Feed, dose end: 13 week, group: systemic
[2] = tested on: rat; conditions: Subchronic oral toxicity in rodents, fischer, Feed, dose end: 13 week, group: systemic; remark: listed apart in the source
[3] = tested on: mouse; conditions: Subchronic oral toxicity in rodents, b6c3f1, Feed, dose end: 13 week, group: systemic
[4] = tested on: mouse; conditions: Multigenerational reproductive toxicity study, cd1, Oral, Feed, dose end: 1 generation
[5] = tested on: rat; conditions: Carcinogenicity, sprague dawley, Oral, Gavage/Intubation, dose end: 105 week, group: systemic
[6] = tested on: rabbit; conditions: Subchronic dermal toxicity, new zealand white, Topical, dose end: 13 week, group: systemic, systemic / in life observation / clinical signs / desquamation + systemic / in life observation / clinical signs / erythema + systemic / in …
[7] = tested on: rat; conditions: Multigenerational reproductive toxicity study, wistar, Oral, Feed, dose end: 2 generation
[8] = tested on: mouse; conditions: Subchronic oral toxicity in rodents, cd1, Feed, dose end: 8 week
[9] = tested on: dog; conditions: Subchronic oral toxicity in nonrodent, beagle, Feed, dose end: 6 month, group: cholinesterase, cholinesterase / cholinesterase / cholinesterase / erythrocyte cholinesterase (che) + cholinesterase / cholinesterase / cholinesterase / …
[10] = tested on: mouse; conditions: Combined chronic toxicity/carcinogenicity, cd1, Oral, Feed, dose end: 91 week
[11] = tested on: rat; conditions: Combined chronic toxicity/carcinogenicity, sprague dawley, Oral, Feed, dose end: 24 month
[12] = tested on: dog; conditions: Chronic toxicity, beagle, Oral, Feed, dose end: 52 week
[13] = systemic / pathology microscopic / kidney / cytoplasmic alteration + systemic / pathology microscopic / kidney / dilatation + systemic / …
[14] = systemic / pathology microscopic / kidney / regeneration + systemic / urinalysis / aspartate aminotransferase (ast/sgot) / aspartate …
[15] = systemic / pathology microscopic / kidney / dilatation + systemic / pathology microscopic / kidney / hyaline droplet + systemic / pathology …
[16] = systemic / pathology microscopic / kidney / regeneration + systemic / clinical chemistry / thyroxine (t4) / thyroxine (t4), free + systemic…
[17] = systemic / clinical chemistry / alanine aminotransferase (alt/sgpt) / alanine aminotransferase (alt/sgpt) + systemic / clinical chemistry / …
[18] = systemic / in life observation / body weight / body weight + systemic / organ weight / liver / absolute
[19] = group: offspring, systemic / in life observation / body weight / offspring (pup) weight + systemic / in life observation / body weight / offspring (pup) …
[20] = group: parental, systemic / in life observation / body weight / body weight + systemic / in life observation / mortality / mortality + systemic / in life …
[21] = group: reproductive, reproductive / offspring survival early / birth index / live birth index
[22] = systemic / clinical chemistry / [other] / [other] + systemic / clinical chemistry / thyroxine (t4) / thyroxine (t4), total + systemic / …
[23] = systemic / clinical chemistry / [other] / [other] + systemic / organ weight / liver / relative to body weight + systemic / clinical …
[24] = group: cholinesterase, cholinesterase / cholinesterase / cholinesterase / cholinesterase (che)
[25] = group: cholinesterase, cholinesterase / cholinesterase / cholinesterase / cholinesterase (che) + cholinesterase / cholinesterase / cholinesterase / brain …
[26] = group: offspring, developmental / offspring survival late / lactation index / lactation index + developmental / offspring survival late / [other] / [other] + …
[27] = group: offspring, systemic / in life observation / clinical signs / no milk in stomach
[28] = group: parental, systemic / in life observation / body weight / body weight gain + systemic / in life observation / clinical signs / hyperreflexitivity
[29] = group: reproductive, reproductive / offspring survival early / litter size / litter size
[30] = group: cholinesterase, cholinesterase / cholinesterase / cholinesterase / plasma cholinesterase (che) + cholinesterase / cholinesterase / cholinesterase / …
[31] = group: systemic, systemic / in life observation / body weight / body weight + systemic / in life observation / body weight / body weight gain + systemic / in…
[32] = group: cholinesterase, cholinesterase / cholinesterase / cholinesterase / brain cholinesterase (che) + cholinesterase / cholinesterase / cholinesterase / …
[33] = group: systemic, systemic / pathology microscopic / intestine small / hyperplasia + systemic / in life observation / mortality / mortality + systemic / …
[34] = group: systemic, systemic / pathology microscopic / intestine small / hyperplasia + systemic / pathology microscopic / bone marrow / hyperplasia
[35] = group: cholinesterase, cholinesterase / cholinesterase / cholinesterase / plasma cholinesterase (che)
[36] = group: cholinesterase, cholinesterase / cholinesterase / cholinesterase / plasma cholinesterase (che) + cholinesterase / cholinesterase / cholinesterase / brain …
[37] = group: systemic, systemic / pathology microscopic / pancreas / atrophy
[38] = group: systemic, systemic / pathology microscopic / pancreas / atrophy + systemic / pathology microscopic / pancreas / adenoma + systemic / in life …
[39] = group: cholinesterase, cholinesterase / cholinesterase / cholinesterase / erythrocyte cholinesterase (che) + cholinesterase / cholinesterase / cholinesterase / …
[40] = group: reproductive, reproductive / reproductive performance / estrous cycle / abnormal
[41] = group: systemic, systemic / organ weight / liver / absolute + systemic / organ weight / liver / relative to brain weight
[42] = group: systemic, systemic / organ weight / liver / absolute + systemic / organ weight / liver / relative to brain weight + systemic / clinical chemistry / …

## Clc1cc(Cl)c(Cl)cc1Cl [1,2,4,5-Tetrachlorobenzene]
[1]; [13]
  LOAEL: 7.1 mg/kg/day
  NOAEL: 2.1 mg/kg/day
[1]; [14]
  LEL: 2.1 mg/kg/day
  NEL: < 2.1 mg/kg/day
[2]; [15]
  LOAEL: 7.1 mg/kg/day
  NOAEL: 2.1 mg/kg/day
[2]; [16]
  LEL: 2.1 mg/kg/day
  NEL: < 2.1 mg/kg/day
[3]; [17]
  LOAEL: > 450 mg/kg/day
  NOAEL: ≥ 450 mg/kg/day
[3]; [18]
  LEL: 4 mg/kg/day
  NEL: < 4 mg/kg/day
[4]; [19]
  LEL: 100 mg/kg/day
  LOAEL: > 250 mg/kg/day
  NEL: 40 mg/kg/day
  NOAEL: ≥ 250 mg/kg/day
[4]; group: parental, systemic / in life observation / body weight / body weight + systemic / in life observation / mortality / mortality
  NEL: 40 mg/kg/day
[4]; [20]
  LOAEL: > 250 mg/kg/day
  NOAEL: ≥ 250 mg/kg/day
[4]; group: parental, systemic / in life observation / body weight / body weight + systemic / organ weight / testes / absolute
  LEL: 100 mg/kg/day
[4]; [21]
  LEL: 100 mg/kg/day
  LOAEL: > 250 mg/kg/day
  NEL: 40 mg/kg/day
  NOAEL: ≥ 250 mg/kg/day

## Clc1cc2oc3c(Cl)c(Cl)c(Cl)cc3c2cc1Cl [2,3,4,7,8-Pentachlorodibenzofuran]
[5]; [22]
  LOAEL: > 0.0002 mg/kg/day
  NOAEL: ≥ 0.0002 mg/kg/day
[5]; [23]
  LEL: 6e-06 mg/kg/day
  NEL: < 6e-06 mg/kg/day

## CC(=O)O.CC(=O)O.NC(=NCCCCCCN=C(N)/N=C(\N)Nc1ccc(Cl)cc1)/N=C(\N)Nc1ccc(Cl)cc1 [Chlorhexidine diacetate]
[6]
  LEL: 250 mg/kg/day
  LOAEL: 250 mg/kg/day
  NEL: < 250 mg/kg/day
  NOAEL: < 250 mg/kg/day

## CCNP(=S)(OC)O/C(C)=C/C(=O)OC(C)C (stereo not drawn) [Propetamphos]
[7]; [24]
  LEL: 2.1 mg/kg/day
  LOAEL: 2.1 mg/kg/day
[7]; [25]
  NEL: 0.3 mg/kg/day
  NOAEL: 0.3 mg/kg/day
[7]; [26]
  LOAEL: 8 mg/kg/day
  NOAEL: 3 mg/kg/day
[7]; [27]
  LEL: 0.5 mg/kg/day
  NEL: < 0.5 mg/kg/day
[7]; group: parental, systemic / in life observation / body weight / body weight gain
  LEL: 3.7 mg/kg/day
[7]; [28]
  LOAEL: 7.1 mg/kg/day
  NOAEL: 2.8 mg/kg/day
[7]; group: parental, systemic / in life observation / body weight / body weight gain + systemic / in life observation / clinical signs / hyperreflexitivity + …
  NEL: 0.5 mg/kg/day
[7]; [29]
  LEL: 0.5 mg/kg/day
  NEL: < 0.5 mg/kg/day
[7]; group: reproductive, reproductive / reproductive performance / implantations / implantations + reproductive / reproductive performance / mating / mating
  NOAEL: 3.7 mg/kg/day
[7]; group: reproductive, reproductive / reproductive performance / implantations / implantations + reproductive / reproductive performance / mating / mating + …
  LOAEL: 11.3 mg/kg/day
[8]; [30]
  LEL: 1 mg/kg/day
  LOAEL: 1 mg/kg/day
  NEL: < 1 mg/kg/day
  NOAEL: < 1 mg/kg/day
[8]; group: systemic, systemic / in life observation / body weight / body weight + systemic / in life observation / body weight / body weight gain
  LOAEL: 59 mg/kg/day
[8]; [31]
  LEL: 59 mg/kg/day
  NEL: 28 mg/kg/day
  NOAEL: 28 mg/kg/day
[9]
  LEL: 0.083 mg/kg/day
  LOAEL: 0.165 mg/kg/day
  NEL: < 0.083 mg/kg/day
  NOAEL: 0.083 mg/kg/day
[10]; [32]
  LEL: 1 mg/kg/day
  LOAEL: 1 mg/kg/day
  NEL: 0.05 mg/kg/day
  NOAEL: 0.05 mg/kg/day
[10]; [33]
  NEL: 1 mg/kg/day
  NOAEL: 1 mg/kg/day
[10]; [34]
  LEL: 6 mg/kg/day
  LOAEL: 6 mg/kg/day
[11]; [35]
  LEL: 0.632 mg/kg/day
  LOAEL: 0.632 mg/kg/day
[11]; [36]
  NEL: 0.376 mg/kg/day
  NOAEL: 0.376 mg/kg/day
[11]; [37]
  LEL: 0.689 mg/kg/day
  LOAEL: 0.689 mg/kg/day
[11]; [38]
  NEL: 0.412 mg/kg/day
  NOAEL: 0.412 mg/kg/day
[12]; [39]
  LEL: 0.59 mg/kg/day
  LOAEL: 0.59 mg/kg/day
  NEL: 0.13 mg/kg/day
  NOAEL: 0.13 mg/kg/day
[12]; [40]
  LEL: 3.39 mg/kg/day
  LOAEL: > 3.39 mg/kg/day
  NEL: 0.67 mg/kg/day
  NOAEL: ≥ 3.39 mg/kg/day
[12]; [41]
  LEL: 0.59 mg/kg/day
  LOAEL: 0.59 mg/kg/day
[12]; [42]
  NEL: 0.13 mg/kg/day
  NOAEL: 0.13 mg/kg/day
